# Measurements as given in the METLIN SMRT retention time set (Domingo-Almenara et al. 2019).
# Assay: gradient 5% acetonitrile 3 min, to 50% in 2 min, to 85% in 15 min, held 3 min, 100 µL/min
# Conditions: column: Zorbax Extend-C18 2.1 x 50 mm; eluents: water / acetonitrile, 0.1% formic acid
# How it was run: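 In both positive and negative ionization mode, a quadrupole time-of-flight mass spectrometer coupled to HPLC analyzed pure standards run in mixtures of ~100 molecules. The Zorbax Extend-C18 column (2.1 × 50 mm, 1.8 μm) was operated at 100 μL/min with water and acetonitrile, each containing 0.1% formic acid. The dead volume was 40 μL and the dwell volume 900 μL. Retention time came from adduct peaks that were computationally picked and individually inspected by hand.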
row,SMILES,RP-LC retention time [s]
1,O=C1CCCc2cc(S(=O)(=O)N3CCC(C(=O)NC4CCCCCCC4)CC3)ccc2N1,814
2,O=C(CN1CCC2(CC1)N=C(c1ccccc1)C(=O)N2)Nc1ccc(Br)cc1F,685
3,CC(Oc1cccc(Cl)c1)C(=O)N1CCN(c2cc(-c3cccs3)[nH]n2)CC1 (stereo unspecified),888
4,CCCNC(=O)C1CCCN(c2ccc(SCC(=O)Nc3cc(C)c(Cl)cc3OC)nn2)C1 (stereo unspecified),838
5,Cc1ncc2c(n1)CCN(C(=O)c1ccc(Cl)cc1)C2,627
6,O=C(Cn1nc2c3cc(-c4ccc(F)cc4)nn3ccn2c1=O)N1CCCC1,758
7,COc1ccc(OC)c(CNC(=O)C2CCCN(c3nnc4ccc(Cl)cn34)C2)c1 (stereo unspecified),737
8,CCCNC(=O)C1CCN(c2ccc(SCC(=O)Nc3cc(C)c(Cl)cc3OC)nn2)CC1,766
9,COc1ccc(-c2ncccc2CNS(=O)(=O)Cc2cc(F)cc(F)c2)cc1,694
10,CC[C@@H](Nc1c(Nc2cccc(C(=O)N(C)C)c2O)c(=O)c1=O)c1cc(C(C)C)co1,772
11,Brc1ccc(-c2noc(Cc3nc(-c4ccccc4)cs3)n2)cc1,1350
12,COc1ccc(-c2nnc(-c3cccc(S(=O)(=O)N4CCCC4)c3)o2)cc1,963
13,CCN(CC)CCNC(=O)c1sc2ncn(CC(=O)N3CC(C)CC(C)C3)c(=O)c2c1C (stereo unspecified),658
14,COc1ccc(OC)c(-c2csc(-c3nnn(-c4ccc(Cl)cc4)c3N)n2)c1,1200
15,COCCN1C(=O)CCc2cc(NC(=O)CC3CCCCC3)ccc21,814
16,CCC(CO)NCc1ccc(-c2ccc(F)cc2)o1 (stereo unspecified),637
17,CN1C(=O)[C@H]2CN(Cc3ccc(Cl)cc3F)C[C@H]2C1=O,644
18,O=C(NCc1ccccc1C(F)(F)F)C1CCN(c2cc(N3CCOCC3)ncn2)CC1,670
19,Nc1nc(Nc2ccc3c(c2)CC[C@@H](N2CCCC2)CC3)nn1-c1cc2c(nn1)-c1ccccc1CCC2,760
20,O=S(=O)(CCOc1ccccc1)N1CCN(c2ccccc2F)CC1,1010
21,C=CCOc1ccnc(-c2ccccc2)n1,1110
22,CN(CC1CCOC1)C(=O)Nc1cccc(Br)c1 (stereo unspecified),716

row,SMILES,RP-LC retention time [s]
1,CCCNC(=O)N1CCN(Cc2nc3cccnc3n2-c2cc(C)cc(C)c2)CC1,656
2,O=C(Nc1ccc(SCc2nnc(-c3ccccc3)o2)cc1)C1CC1,870
3,O=C(NCCCN1CCN(Cc2ccccc2)CC1)c1cn2c3c(ccc(Cl)c3c1=O)OCC2,634
4,CCCCNC(=O)C1c2ccccc2C(=O)N(C)C1c1cccs1 (stereo unspecified),775
5,COC(=O)C1=C(C)N(C(C)C)C(=O)C1(NC(=O)CCc1ccccc1)C(F)(F)F (stereo unspecified),936
6,CNC(=O)c1cn2ccnc(-c3ccc(OC)cc3)c2n1,711
7,COc1ccc(-c2noc(Cc3nnc(-c4cccc(Cl)c4)o3)n2)cc1F,1060
8,CC(C)n1c(CN2CCOCC2)nc2cc(NC(=O)c3cccs3)ccc21,640
9,CCCCNC(=O)c1cn(-c2ccc(NC(=O)CC)cn2)cn1,678
10,Cc1ccc(CNC(=O)C2(C)CN(S(C)(=O)=O)CC(=O)N2c2cc(Cl)ccc2C)cc1 (stereo unspecified),829
11,CCCCN1CC(c2nc3ccccc3n2CC(=O)N(C)c2ccccc2)CC1=O (stereo unspecified),700
12,CCC(C(=O)NCc1cccnc1)n1c2ccccc2c2cnn(C)c(=O)c21 (stereo unspecified),615
13,Cc1cc(C)n(-c2ccc(N3CCN(C(=O)COc4ncccn4)CC3)nn2)n1,596
14,Clc1ccccc1-n1ncc2c(NCc3ccco3)ncnc21,719
15,CC(=O)NCCc1c(Cc2ccccc2)[nH]c2ccccc12,876
16,COc1ccc(-c2nnc(COc3ccc(NC(=O)C4CCN(C(C)=O)CC4)cc3)o2)cc1,703
17,CCCN1C(=O)c2cc(S(=O)(=O)NCc3ccccc3F)ccc2Oc2cccnc21,1030
18,Cc1nc2cc(-c3noc(-c4ccc(C#N)cc4F)n3)ccc2o1,1000
19,COC(=O)c1ncn2c1C(=O)N(Cc1ccc(F)cc1)C(C)(C(=O)NC1CCCCC1)C2 (stereo unspecified),752
20,CNC(=O)Cc1csc(-c2ccc(F)cc2)n1,716
21,COCCc1noc(C2CN(S(=O)(=O)c3ccccc3)C2)n1,751
22,Cc1cc(N2CCN(C)CC2)nc2ccc(NC(=O)Nc3ccc(F)cc3)cc12,587

row,SMILES,RP-LC retention time [s]
1,COC(=O)C1=C(C)NC(C)=C(C(=O)OC(C)(C)CN(C)CCC(c2ccccc2)c2ccccc2)C1c1cccc([N+](=O)[O-])c1 (stereo unspecified),1010
2,Cc1ccc(-c2ccc(-n3nc(C)c(S(=O)(=O)NCCN4CCCCC4C)c3C)nn2)cc1C (stereo unspecified),748
3,Cc1ccc(C2CC(=O)c3cnc(Nc4nc(C)c5cccc(C)c5n4)nc3C2)cc1 (stereo unspecified),794
4,CCc1nc2cc(-c3noc(-c4cc(Cl)ccc4OC)n3)ccc2o1,1220
5,Cc1cc(=O)n(CC(=O)Nc2ccc(F)cc2)c(N2CCCCC2)n1,635
6,CC1CCN(c2nn(CC(=O)Nc3ccccc3)c(=O)c3ccccc23)CC1,1110
7,CN1C(=O)C2CCCCN2c2ccc(C(=O)NCCc3cccs3)cc21 (stereo unspecified),872
8,Cc1ccc(-n2nc(N3CCCC(C(=O)Nc4cccc(C)c4C)C3)ccc2=O)cc1Cl (stereo unspecified),999
9,CCCCn1cc(S(=O)(=O)N2CCN(c3ccc(F)cc3)CC2)c2cccnc21,1120
10,CCOc1ccc(C(C)NC(=O)c2cn3nc(OCC)ccc3n2)cc1 (stereo unspecified),935
11,O=C(NCCC1CCN(C(=O)Nc2ccc(F)cc2)CC1)c1ccco1,718
12,COc1ccc2c(c1)C1(CCN(C(=O)c3cccc(F)c3)C1)C(=O)N2C (stereo unspecified),782
13,Cc1cc(C(=O)Nc2ccc(N3CCOCC3)cc2)nc2cc(-c3ccccn3)nn12,802
14,CC(C)Cn1cc(CCNC(=O)c2ccccc2C(F)(F)F)c2cccnc21,854
15,O=C(NCCCN1CCOCC1)c1cc2occc2c(Nc2ccc(F)cc2)n1,652
16,Cc1nnc(N2CCCC(C(=O)N3CCc4ccccc43)C2)c2nn(-c3ccc(Cl)cc3)c(C)c12 (stereo unspecified),850
17,Cc1nn(C(=O)C2CC2)c(C)c1Sc1ccccc1[N+](=O)[O-],1110
18,COc1ccc2c(c1)C1(CCN(S(=O)(=O)c3ccccc3F)C1)C(=O)N2 (stereo unspecified),808
19,CCOC(=O)c1[nH]c(C)c(CCC(=O)N2CCC(C(=O)NC3CCCC3)CC2)c1C,729
20,CC(C)CC(=O)N1CCC(c2noc(-c3ccncc3)n2)C1 (stereo unspecified),719
21,COc1ccc(-n2nc3c(N4CCCC(C(=O)NCCc5ccco5)C4)nnc(C)c3c2C)cc1 (stereo unspecified),712
22,COc1ccc(C(=O)N2CCC3(CC2)NC(=O)c2ccc(Cl)cc2N3)cc1OC,692
